# Assay results reported in US20230346777A1, “USE OF SGC ACTIVATORS FOR THE TREATMENT OF OPHTHALMOLOGIC DISEASES” (Bayer Aktiengesellschaft, priority 2020, published 2023).
# Entries after “also recorded” stand apart in the source; their conditions may differ. Where a name gives a salt, the structure may show the parent alone.
# Key:
# [1] = tested on: retinal ischemia reperfusion (I/R) in rat; experiment: Sub-chronic changes in rat retinal structure after retinal ischemia reperfusion (I/R), therapeutic and prophylactic settings; type: in vivo, male Wistar Unilever rats; settings: for IPL (inner plexiform layer) thickness: H&E sections
# Text: B-8 Evaluation of Sub-Chronic Changes in Rat Retinal Structure after Retinal Ischemia Reperfusion (I/R) Therapeutic and Prophylactic Settings
# Six male Wistar Unilever rats were used per experimental group. On induction day, rats were anesthetized with an intraperitoneal injection of Rompun® and Ketavet® before the pupils of the right eyes were dilated with Alcain eye drops and in addition treated with Vigamox® eye drops. The left eye is covered with Bepanthen® eye cream. Under deep anesthesia, the retina and the optic nerve were examined by optical coherence tomography (OCT) as a baseline measurement. The induction was done as the anterior chamber was punctured with a 30 G needle. Through a tube, 0.9% NaCl solution was pumped into the anterior chamber with a pressure 120 mm Hg. The pressure is regulated with a blood pressure cuff. The intraocular pressure (IOP) was elevated for 45 min. The procedure was successful as the eyeballs discolored because of vascular obstruction. After 45 min, the needle was removed, eye cream was put on the right eye and the animal could wake up. Compound (e.g. example 3, formula I-E-R) or its vehicle were orally applied, once daily (QD). The application volume was 5 mL/kg. In prophylactic setting, animals started the treatment 2 days before induction and received an intravenous (IV) bolus of compound (e.g. example 3, formula I-E-R) (i.v. 3 mg/kg in rat plasma) 15 minutes before induction. Treatment continued then after for 21 days. In the therapeutic setting, animals received an intravenous (IV) bolus of compound (e.g. example 3, formula I-E-R) (i.v. 3 mg/kg in rat plasma) 15 minutes after induction. Treatment continued then after for 21 days; once daily (3 mg/kg, PO QD). At day 7 and day 21, the retina and the optic nerve were examined by optical coherence tomography (OCT). The retinal function was evaluated by the ERG (Electroretinography) at day 7 and day 21 post induction according to the method disclosed in McCulloch et al., 2015. Functional read-out of retinal electrical signal in response to light stimulation “b-wave amplitude (μv)” represents inner retinal function. Then the eyes were collected for histopathology and preserved in Davidson's solution. The eye sections were stained with hematoxylin and eosin staining. The total retinal thickness and the inner plexiform layer thickness was measured at 1000 μm distances from the optic nerve using (Microscope Software ZEN, Zeiss, Germany).
# Neuroprotection: The inner plexiform layer (IPL) functions as a relay station for the vertical-information-carrying nerve cells, the bipolar cells, to connect the photoreceptor cells to the ganglion cells. The IPL layer thickness was measured in histological sections stained with (H&E).
# [2] = tested on: retinal ischemia reperfusion (I/R) in rat; experiment: Acute changes in rat retinal structure after retinal ischemia reperfusion (I/R), prophylactic settings; type: in vivo, male Wistar Unilever rats; settings: I/R rats
# Text: B-7 Evaluation of Acute Changes in Rat Retinal Structure after Retinal Ischemia Reperfusion (I/R) Prophylactic Settings
# Six male Wistar Unilever rats were used per experimental group. On induction day, rats were anesthetized with an intraperitoneal injection of Rompun® and Ketavet® before the pupils of the right eyes (oculus dextrus, OD) were dilated with Alcain eye drops and in addition treated with Vigamox® eye drops. The left eye (oculus sinister, OS) is covered with Bepanthen® eye cream. Under deep anesthesia, the retina and the optic nerve were examined by optical coherence tomography (OCT) as a baseline measurement. 15 minutes before induction, group 2 received an intravenous (IV) bolus of compound (e.g. example 3, formula I-E-R) (i.v. 3 mg/kg in rat plasma). Then, the anterior chamber was punctured with a 30 G needle. Through a tube, 0.9% NaCl solution was pumped into the anterior chamber with a pressure 120 mm Hg. The pressure is regulated with a blood pressure cuff. The intraocular pressure (IOP) was elevated for 45 min. The procedure was successful as the eyeballs discolored because of vascular obstruction. After 45 min, the needle was removed, eye cream was put on the right eye and the animal could wake up. […]
# Functional read-out of retinal electrical signal in response to light stimulation “b-wave amplitude (μv)” represents inner retinal function. […]
smiles,measurement,setting,value
"CC(C)CN1CCN(c2ccc(-c3ccc(Cl)cc3N3CCC[C@@H](n4ncc(C(=O)O)c4C(F)F)C3)cc2)CC1 [Example 3, 1-{1-[4-Chloro-4′-(4-isobutylpiperazin-1-yl)[biphenyl]-2-yl]piperidin-3-yl}-5-(difluoromethyl)-1H-pyrazole-4-carboxylic acid hydrochloride]",retinal structure and photoreceptors integrity (histology),[1]; I/R rats vs IR only,"the retinal structure was preserved, and the photoreceptors integrity was intact"
same,retinal thickness (histology),"[1]; I/R rats, 3 mg/kg PO QD for 21 days plus i.v. 3 mg/kg bolus, at 3 weeks vs IR only",significantly higher retinal thickness compared to IR only animals
same,retinal structure / mean total retinal thickness by optical coherence tomography (OCT),"[1]; I/R rats, 1- and 3-weeks post induction vs IR only",protect retinal structure
same,retinal function measured by ERG (b wave amplitude),"[1]; I/R rats, one week and 3 weeks post induction vs IR, hydrochloride",significant difference in retinal function; also recorded: reduces ischemia induced retinal dysfunction
same,IPL (inner plexiform layer) thickness,"[1]; I/R rats, prophylactic setting (FIG. 4A)",preserved
same,IPL (inner plexiform layer) thickness,"[1]; I/R rats, therapeutic setting (FIG. 4B)",preserved
same,retinal structure (OCT and histological examination),[2]; day 7 post ischemic induction,preserved retinal structure in both OCT and histological examination
same,"b wave amplitude (ERG, retinal function)","[2]; oral QD from 2 days before to 6 days after induction plus i.v. 3 mg/kg bolus 15 min before induction, day 7 post induction, hydrochloride, 3 mg/kg",significant higher b wave amplitude compared to vehicle treated animals; also recorded: reduces ischemia induced retinal dysfunction
